Test [1] has as its system Rattus norvegicus. Kind of test: Anti-inflammatory activity against complete Freund's adjuvant (CFA)-induced arthritis rat model assessed as reduction in body weight at 20 to 80 mg/kg, ip treated after 17 days of CFA challenge measured after 18 days (day 17 to 34) relative to control. In kind it is functional, organism-based. As to conditions: dose 20-80 mg/kg, time 18.0 day.

Test [2] concerns THP-M. In words: Reduction of reactive oxygen species production in human THP-M cells pretreated for 24 hrs followed by stimulated with LPS for 3 hrs and ATP for 1 hr by Mitochondrial damage experiment. In kind it is functional, cell-based. Conditions: time 28.0 hrs.

The source made the active and inactive calls. The calls are words filed in the database; no cut-off is given here.

`COCCCNC(=O)c1ccc(Cn2c(SCC3CCCCC3)nc3ccncc32)cc1`: in test [1], the outcome was Active. Also, in test [2], the result was inactive.

(Values after ChEMBL document CHEMBL5500404, “Discovery and Development of NLRP3 Inhibitors Targeting the LRR Domain to Disrupt NLRP3-NEK7 Interaction for the Treatment of Rheumatoid Arthritis” (J Med Chem, 2024).)
